Entries after “also recorded” stand apart in the source; their conditions may differ.
How the values were obtained:
Assay type in all cases: in vivo, rat
[1] = system: Male Sprague-Dawley rats; assay: Conditioned freezing paradigm: consolidation of fear memory (xenon exposure immediately after fear conditioning); conditions: for conditioned freezing to context (consolidation of fear memory) / conditioned freezing to tone (CS) (consolidation of fear memory): xenon 25% for 24 h immediately after tone+shock training, vs Air-treated, tested after exposure and retested 1 and 2 weeks later; for conditioned freezing to context (consolidation of fear memory): FIG. 1B; for conditioned freezing to tone (CS) (consolidation of fear memory): FIG. 1C
Protocol: (§1) An illustration of the methodology used for training and testing rats in the conditioned freezing paradigm is shown in FIG. 1 (see also Johansen et al., Cell, 2011, 147; 509-524). Male Sprague-Dawley rats (350-375 g) were housed for at least one week before the experiment. On the training day, rats were placed into a conditioning chamber, housed within a sound-attenuating cabinet (Med Associates, Georgia, Vt.), for 2 min before the onset of the conditioned stimulus (CS). The CS was a tone (5 kHz, 75 dB) that lasted for 30 s. The last 2 s of the CS were paired with a continuous foot shock (0.6 mA, the unconditioned stimulus (US)). Rats received two presentations of the CS+US (tone plus shock). After additional 30 s in the chamber, rats were randomly divided into two groups (n=4/group) and immediately placed in either the Air or xenon-exposure chambers. After 24-h of air or xenon (25%) exposure, rats were tested for retention of conditioned fear using conditioned freezing as a measure of fear. For the test, rats were placed into a different context and, 2 min later, were exposed to the tone CS (5 kHz, 75 dB) for 60 s. Freezing scores were calculated as the percentage of the total duration that the rat remained immobile (frozen) other than breathing during the first 2 min (freezing to context) and during presentation of the CS (freezing to tone). Rats were then returned to the main animal holding room (i.e. no more air or xenon exposure took place) and were retested 1 and 2 weeks later (re-test and 3rd test) as described above.

[2] = system: Male Sprague-Dawley rats; assay: Conditioned freezing paradigm: reconsolidation of fear memory (xenon exposure after reactivation test); conditions: for conditioned freezing to context (reconsolidation of fear memory): FIG. 1D; for conditioned freezing to tone (reconsolidation of fear memory): FIG. 1E
Protocol: as §1
Newly formed memories, including traumatic memories, are stabilized over several hours after the acquisition for long-term storage. This process, termed consolidation, critically depends on the permanence of acquisition-induced synaptic modifications in the corresponding neural circuits and is NMDA-receptor dependent. Once retrieved, consolidated memory enters a labile state again and should be reconsolidated, or it will be diminished or lost (see Debiec, 2012). To explore the effects of xenon exposure on post-retrieval memory reconsolidation, the inventors trained and tested male Sprague-Dawley rats in the conditioned freezing paradigm described in the methods section above.
Immediately after the fear memory test (24 h post-conditioning), where animals are subjected to context and CS (tone) exposure previously paired with shock (on the training day), rats were placed in either the Air or xenon (25%) exposure chambers for 1 hr. Rats were then tested for conditioned freezing 48 hours later. […]

[3] = system: Male Sprague-Dawley rats; assay: as above; conditions: xenon 25%, no react group (no reactivation test); for conditioned freezing to context, animals without reactivation test: FIG. 1F; for conditioned freezing to tone, animals without reactivation test: FIG. 1G
[4] = xenon 25% for 1 hr after reactivation test 24 h post-conditioning, re-tested 48 hours later (PR-LTM1)
[5] = xenon 25% for 1 hr after reactivation test 24 h post-conditioning, re-tested 48 hours later (PR-LTM1), listed as Xe
[6] = xenon 25% for one hour after reactivation, tested after another 48 hours (PR-LTM2)

For `[Xe]` [xenon], the “fear memory / conditioned freezing, context and cue not separated” value ([1]; inhaled xenon (25%), male Sprague-Dawley rats, vs non-treated animals, FIG. 1) was “significantly reduces the consolidation of fear memories; also recorded: significantly reduced conditioned freezing”, the “conditioned freezing to context (consolidation of fear memory)” value [1] was “reduced levels of conditioned freezing” and the “conditioned freezing to context (consolidation of fear memory)” value ([1]; listed as Xe) was “significant reduction in freezing”. For the same molecule, the “conditioned freezing to tone (CS) (consolidation of fear memory)” value [1] was “reduced levels of conditioned freezing”, the “conditioned freezing to tone (CS) (consolidation of fear memory)” value ([1]; listed as Xe) was “also reduced” and the “conditioned freezing to context (reconsolidation of fear memory)” value [2, 4] was “reduces the expression of conditioned freezing; also recorded: blocks reconsolidation of conditioned fear”. For the same molecule, the “conditioned freezing to context (reconsolidation of fear memory)” value [2, 5] was “significantly less freezing”, the “conditioned freezing to tone (reconsolidation of fear memory)” value [2, 4] was “reduces the expression of conditioned freezing; also recorded: blocks reconsolidation of conditioned fear” and the “conditioned freezing to tone (reconsolidation of fear memory)” value [2, 5] was “significantly less freezing”. For the same molecule, the “conditioned freezing to context (reconsolidation of fear memory)” value [2, 6] was “significantly less freezing”, the “conditioned freezing to tone (reconsolidation of fear memory)” value [2, 6] was “significantly less freezing” and the “conditioned freezing to context, animals without reactivation test” value [3] was “does not block reconsolidation of conditioned fear”. The “conditioned freezing to context, animals without reactivation test” value ([3]; listed as Xe) was “no reduction in freezing”, the “conditioned freezing to tone, animals without reactivation test” value [3] was “does not block reconsolidation of conditioned fear” and the “conditioned freezing to tone, animals without reactivation test” value ([3]; listed as Xe) was “no reduction in freezing”.

Source: patent US20170312308A1, “XENON AND/OR ARGON TREATMENT AS AN ADJUNCT TO PSY[…] PSYCHIATRIC DISORDERS” (THE MCLEAN HOSPITAL CORPORATION, priority 2012, published 2017)
